Measurements taken from US20090130064A1, “DIFFERENTIATION OF STEM CELLS AND STABILIZATION OF PHENOTYPICAL PROPERTIES OF PRIMARY CELLS” (priority 2004, published 2009).

What was measured:
primary rat hepatocytes = assay: FACS analysis of cell cycle distribution of primary rat hepatocytes; type: cell-based; conditions: 50 μM + EGF; 72 hours
Method: Ploidy of hepatocyte nuclei was measured by FACS analysis. After hypotonic swelling of the cells with 0.1% sodium citrate, cellular DNA was stained with propidium iodide (50 μg/ml) and analyzed on a FACStar^Plus (Beckton Dickinson Biosciences, San José, Calif., USA).

ERK1/2 = assay: Western blotting of ERK1/2 phosphorylation in synchronized hepatocytes; type: cell-based, rat; conditions: 50 μM + EGF; initial 30 min
Method: Total cell extracts were prepared as described previously (Papeleu et al. J Hepatol 39: 374-382, 2003) and proteins (25 or 50 μg per lane) were separated electrophoretically by SDS-PAGE and electroblotted onto nitrocellulose membranes (Amersham Pharmacia Biotech, Buckinghamshire, UK). Equal sample loading was verified by immersion of the membranes in Ponceau S. Unspecific binding sites were blocked with 5% skim milk/Tris-buffered saline. Incubations with primary antibodies were performed overnight at 4° C. under gentle shaking. Proteins were detected using the ECL detection system (Amersham Pharmacia Biotech, Buckinghamshire, UK) according to the manufacturer's recommendations.
Early cell cycle events can be triggered by distinct signalling pathways, activated by EGF, namely: the MEK/ERK, the mTOR/p70S6k, and the Pak1 pathways. Eventually, they all converge on cyclin D1 and play thus an essential role in the regulation of this critical cell cycle protein. […] This was done by culturing the hepatocytes in the absence of EGF for 48 hours, consequently stimulating them with EGF and exposing them to 50 μM 4-Me2N-BAVAH for 0.5, 1 and 3 hours before harvesting. Shortly after stimulation of synchronized primary hepatocytes with EGF, a rapid and sustained phosphorylation of ERK1/2 was observed (FIG. 20A). […]

rat hepatocytes = assay: Lactate dehydrogenase index and morphology in cultured rat hepatocytes; type: cell-based; conditions: 50 μM
Method: The % LDH leakage of the cells was calculated as the result of the ratio: [100×LDH activity in supernatant]/[LDH activity in (supernatant+cells)]
Medium samples were collected at 72 hours of culture and analyzed for their albumin content by an enzyme-linked immunosorbent assay (ELISA) as described (Dunn et al. Biotechnol Prog 7: 237-245, 1991) Cell morphology was analyzed by light microscopy (×100). Pictures were taken using an Optiphot Nikon Phase Contrast microscope (Cetec, Brussels, Belgium).

GSTM = GSTM iso-enzyme activity in cultured rat hepatocytes; type: cell-based; conditions: TSA started at 4 h; day 4 and 7
Text: Hepatocytes were isolated from male Sprague-Dawley rats by a two-step collagenase perfusion as described (De Smet et al. In ‘Methods in Molecular Biology, Vol. 107: Cytochrome P450 Protocols’, Philips IR and Shephard E A, eds., p.p 295-301, Humana Press, Totowa, 1998). Hepatocytes were cultivated in monolayer cultures with Willam's E Medium (WE) for 7 days. […] The maintenance of differentiation characteristics was studied after 2, 4, and 7 days (D2, D4, D7) of culture.
In order to investigate Phase II biotransformation, total cytosolic glutathione S-transferase (GST) activity and activities of individual GSTA, GSTP, and GSTM iso-enzymes were measured using standard techniques known in the art. (i.e., measuring conjugation of reduced glutathione with 1-chloro-2,4-dinitrobenzene for total GST; measuring conjugation of reduced glutathione with 7-chloro-4-nitrobenzo-2-oxa-1,3-diazole for GSTA activity; measuring conjugation of reduced glutathione with ethacrynic acid for GSTP activity; and measuring conjugation of reduced glutathione with 1,2-dichloro-4-nitrobenzene for GSTM activity).

histone H4 = assay: Acetylated histone H4 by immunocytochemistry in rat hepatocytes; type: cell-based; conditions: 1 μM TSA
Method: In all conditions, the hepatocytes were cultivated as a monolayer configuration, and samples were taken at days 1, 4 and 7 (D1, D4, D7) of the cultivation time.
Hepatocytes were fixed with cold ethanol, peremeabilised with Triton X-100 (Sigma) and blocked with non-fatty milk. Following incubation with appropriate concentrations of primary and secondary antibodies (FITC or TRITC labeled), samples were mounted with DAPI-containing Vectashield (Vector Laboratories). Detection was performed by fluorescence microscopy (Leica DMR/XA).

hMSC = assay: LDH-leakage cytotoxicity in hMSC; type: cell-based, human
Method: Low-density hMSC (CD45^−, Thy^+) were cultivated at 21.5 10^3 cells cm^2 on 1 mg/ml collagen gel type I matrix in the presence of liver-specific (LSP) cytokines, added either as a cocktail [basal medium supplemented with 10 ng/ml FGF-4 (fibroblast growth factor type 4), 20 ng/ml HGF (hepatic growth factor) (all from R&D), 1×ITS (insulin, transferrin, selenious acid) and 0.05 μM Dex (dexamethasone) (all from Sigma)] or sequentially [basal medium supplemented with 10 ng/ml FGF-4, following basal media supplemented with 20 ng/ml HGF (R&D) and finally basal medium supplemented with 20 ng/ml HGF, 1×ITS and 0.05 μM Dex]. Basal medium consisted of 60% (v/v) DMEM-LG/40% (v/v) MCDB-201 supplemented with 1 mg/ml LA-BSA, 100 IU/ml penicillin, 100 μg/ml streptomycin, 0.1 mM L-ascorbic acid, 4 μg/ml nicotinamide, 27.3 mg/l sodium-pyruvate and 1.623 mM glutamin (all from Sigma). The media were changed every three days.
The assay was done with an LDH-kit (Merck 1 14869.0001; Ecoline 1S) according to the manufacturer's recommendations.

rat BMSC = assay: DNA synthesis by [methyl-3H] thymidine incorporation in differentiating rat BMSC; type: cell-based
Method: [methyl-3H] thymidine (25 μCiμmol, 2 μCi/ml) incorporation into trichloroacetic acid precipitated-DNA (Amersham Inc) was measured.
BMSC were, 24 h after splitting; cultivated in the presence of LSP cytokines, added either as a cocktail or separately on 10 ng/ml FN at 2.465 10^3 cells/cm^2. […] Media were changed every three days. Samples were taken 2, 4, 6, 12 and 18 h after splitting or media change. Cells were stimulated for 2 h before sampling with 2 μCi [methyl-^3H] thymidine (Amersham Pharmacia Biotech)/ml medium. [methyl-^3H] thymidine incorporation was measured using a scintillation counter (Wallac 1410) with a counting efficiency of 62.4%.

[1] = 1 μM TSA first from 168 h cultivation on, sequential

| SMILES | number of cells in G2/M (primary rat hepatocytes) | proportion of cells in G0/G1 (primary rat hepatocytes) | ERK1/2 phosphorylation (ERK1/2) | cytotoxicity (LDH leakage, morphology) (rat hepatocytes) | activity of GSTM iso-enzyme (GSTM) | acetylation of histone H4 (histone H4) | cytotoxicity (LDH leakage) (hMSC; 1 μM TSA) | cell lethality (LDH leakage) (hMSC; 1 μM TSA, from day 13 (cocktail) and day 3 (sequential) on) | cytotoxicity (LDH leakage) (hMSC; 5 and 25 μM TSA from day 0 until addition of HGF) | cytotoxicity by microscopic analysis (rat BMSC) | cell death by microscopic analysis (rat BMSC; 1 μM TSA added from 24 and 96 h on, sequential) | [methyl-3H] thymidine incorporation (rat BMSC; [1]) | cell death by microscopic analysis (rat BMSC; [1]) | DNA synthesis compared with control (sequential without TSA) (rat BMSC; 1 μM TSA from 24, 96 and 168 h on, sequential LSP cytokines) | DNA synthesis compared with control (cocktail-TSA) (rat BMSC; 1 μM TSA from 24 and 96 h of cultivation on, cocktail of LSP cytokines) | cell death by microscopic analysis (rat BMSC; 1 μM TSA from 168 h, cocktail, day 7) | [methyl-3H] thymidine incorporation (DNA synthesis) (rat BMSC; 5 and 25 μM TSA) | [methyl-3H] thymidine incorporation (rat BMSC; first addition of 1 μM TSA from 168 h of cultivation on, cocktail) |
| --- | --- | --- | --- | --- | --- | --- | --- | --- | --- | --- | --- | --- | --- | --- | --- | --- | --- | --- |
| CN(C)c1ccc(C(=O)NCCCCC(=O)NO)cc1 [4-Me2N-BAVAH, 5-(4-dimethylaminobenzoyl)-aminovaleric acid hydroxamide] | significantly lower | significantly higher proportion | increase in ERK1/2 phosphorylation | not due to cytotoxicity | – | – | – | – | – | – | – | – | – | – | – | – | – | – |
| CC(C=CC(=O)NO)=CC(C)C(=O)c1ccc(N(C)C)cc1 (stereo not drawn) [TSA] | – | – | – | – | stimulated | hyperacetylation | did not cause immediate cell death | significantly downregulated cell lethality | immediate cell death | cytotoxicity | cell death | no [methyl-^3H] thymidine incorporation | No death cells were observed | decrease of the DNA synthesis | increase of the DNA synthesis | no cell death had occurred | no incorporation | no [methyl-^3H] thymidine |
